From ChEMBL document CHEMBL1151524, “Synthesis and evaluation of pyrazolo[3,4-b]quinoline ribofuranosides and their derivatives as inhibitors of oncogenic Ras” (Bioorg Med Chem Lett, 1996)

Assays:
GTPase HRas [1] = molecular target: T1, GTPase HRas (Homo sapiens, UniProt P01112); assay: Inhibition of nucleotide exchange process of oncogenic Ras at concentration 50 uM
GTPase HRas [2] = molecular target: T1, GTPase HRas; assay: Inhibition of nucleotide exchange process of oncogenic Ras in vitro
GTPase HRas [3] = molecular target: T1, GTPase HRas; assay: In vitro for inhibition of nucleotide exchange process of oncogenic Ras

T1 sequence (P01112 whole entry, looked up): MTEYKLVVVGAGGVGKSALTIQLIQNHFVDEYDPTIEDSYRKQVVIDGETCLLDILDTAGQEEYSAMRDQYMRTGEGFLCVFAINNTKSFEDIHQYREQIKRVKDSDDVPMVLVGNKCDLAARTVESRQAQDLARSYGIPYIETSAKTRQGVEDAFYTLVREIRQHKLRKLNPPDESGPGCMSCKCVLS

Row | Compound | inhibition (GTPase HRas [1]) | IC50 (GTPase HRas [2]) | also measured
1 | COc1ccc2nc3c(c(C)nn3[C@@H]3O[C@H](COC(=O)c4ccccc4)[C@@H](O)[C@H]3O)c(Cl)c2c1 | 16% | – | –
2 | COc1ccc2nc3c(c(C)nn3[C@@H]3O[C@H](COC(=O)c4ccccc4)[C@H]4OC(=S)O[C@H]43)c(Cl)c2c1 | – | 15 µM | –
3 | COc1ccc2nc3c(c(C)nn3[C@@H]3O[C@H](COC(=O)c4ccccc4)[C@@H](OC(C)=O)[C@H]3OC(C)=O)c(Cl)c2c1 | 44% | – | –
4 | COc1ccc2nc3c(c(C)nn3[C@H]3CN(Sc4ccccc4[N+](=O)[O-])C[C@@H](CO)O3)c(Cl)c2c1 | – | 14 µM | –
5 | COc1ccc2nc3c(c(C)nn3[C@@H]3O[C@H](COC(=O)c4ccccc4)[C@@H](OC(=O)c4ccccc4)[C@H]3OC(=O)c3ccccc3)c(Cl)c2c1 | – | – | IC50 (GTPase HRas [3]): 10 µM
6 | COc1ccc2nc3c(c(C)nn3[C@H]3CN(S(=O)(=O)c4ccccc4)C[C@@H](CO)O3)c(Cl)c2c1 | – | 12 µM | –
7 | COc1ccc2nc3c(c(C)nn3[C@@H]3O[C@H](OC(O)CC(=O)c4ccccc4)[C@H]4OC(=S)O[C@H]43)c(Cl)c2c1 (stereo not given in full) | – | 1.5 µM | –
8 | CCOC(=O)/C=C/C[C@@H]1CN(Sc2ccccc2[N+](=O)[O-])C[C@H](n2nc(C)c3c(Cl)c4cc(OC)ccc4nc32)O1 | – | 16 µM | –
9 | COc1ccc2nc3c(c(C)nn3[C@H]3CN(Sc4ccccc4[N+](=O)[O-])C[C@@H](CO[Si](C)(C)C(C)(C)C)O3)c(Cl)c2c1 | – | 1 µM | –
10 | COc1ccc2nc3c(c(C)nn3[C@H]3CN(S(=O)(=O)c4ccc(NC(C)=O)cc4)C[C@@H](CO[Si](C)(C)C(C)(C)C)O3)c(Cl)c2c1 | – | 27 µM | –
11 | COc1ccc2nc3c(c(C)nn3[C@H]3C=C[C@@H](O/C=C/C(=O)c4ccccc4)O3)c(Cl)c2c1 | – | 35 µM | –
12 | COc1ccc2nc3c(c(C)nn3[C@H]3CN(Sc4ccc([N+](=O)[O-])cc4)C[C@@H](C/C=C/C(=O)c4ccccc4)O3)c(Cl)c2c1 | – | 7.4 µM | –
13 | COc1ccc2nc3c(c(C)nn3[C@H]3CN(Sc4ccc([N+](=O)[O-])cc4)C[C@@H](C/C=C/C(C)=O)O3)c(Cl)c2c1 | – | 3 µM | –
14 | COc1ccc2nc3c(c(C)nn3[C@H]3CC[C@@H](COC(=O)c4ccccc4)O3)c(Cl)c2c1 | 38% | – | –
15 | COc1ccc2nc3c(c(C)nn3[C@@H]3O[C@H](COC(=O)c4ccc([N+](=O)[O-])cc4)[C@@H](OC(=O)c4ccc([N+](=O)[O-])cc4)[C@H]3OC(=O)c3ccc([N+](=O)[O-])cc3)c(Cl)c2c1 | 59% | – | –
16 | COc1ccc2nc3c(c(C)nn3[C@H]3CN(S(=O)(=O)c4ccccc4)C[C@@H](COC(=O)c4ccccc4)O3)c(Cl)c2c1 | 47% | – | –
17 | COc1ccc2nc3c(c(C)nn3[C@H]3CN(S(=O)(=O)c4ccc([N+](=O)[O-])cc4)C[C@@H](C/C=C/C(=O)c4ccccc4)O3)c(Cl)c2c1 | – | 7 µM | –
18 | COc1ccc2nc3c(c(C)nn3[C@@H]3O[C@H](COC(=O)Cc4ccccc4)[C@@H](OC(=O)Cc4ccccc4)[C@H]3OC(=O)Cc3ccccc3)c(Cl)c2c1 | 62% | – | –
19 | COc1ccc2nc3c(c(C)nn3[C@@H]3O[C@H](COC(=O)c4cccnc4)[C@@H](OC(=O)c4cccnc4)[C@H]3OC(=O)c3cccnc3)c(Cl)c2c1 | 33% | – | –
20 | COc1ccc2nc3c(c(C)nn3[C@@H]3O[C@H](COC(=O)c4ccccc4)[C@@H](OCc4ccccc4)[C@H]3OCc3ccccc3)c(Cl)c2c1 | 53% | – | –

Row | Compound | inhibition (GTPase HRas [1]) | IC50 (GTPase HRas [2]) | also measured
21 | CCOC(=O)/C=C/C[C@@H]1CN(Sc2ccc([N+](=O)[O-])cc2)C[C@H](n2nc(C)c3c(Cl)c4cc(OC)ccc4nc32)O1 | 64% | – | –
22 | COc1ccc2nc3c(c(C)nn3[C@@H]3O[C@H](COC(=O)c4ccco4)[C@@H](OC(=O)c4ccco4)[C@H]3OC(=O)c3ccco3)c(Cl)c2c1 | – | 10.5 µM | –
23 | COc1ccc2nc3c(c(C)nn3[C@@H]3O[C@H](O/C=C/C(=O)c4ccccc4)[C@H]4OC(C)(C)O[C@H]43)c(Cl)c2c1 | 53% | – | –
24 | COc1ccc2nc3c(c(C)nn3[C@@H]3O[C@H](COC(=O)C(C)C)[C@@H](OC(=O)C(C)C)[C@H]3OC(=O)C(C)C)c(Cl)c2c1 | 33% | – | –
25 | COc1ccc2nc3c(c(C)nn3[C@H]3C=C[C@@H](OCCC(=O)c4ccccc4)O3)c(Cl)c2c1 | 25% | – | –
26 | COc1ccc2nc3c(c(C)nn3[C@H]3CN(Sc4ccccc4[N+](=O)[O-])C[C@@H](C/C=C/C(C)=O)O3)c(Cl)c2c1 | 88% | – | –
27 | COc1ccc2nc3c(c(C)nn3[C@H]3C=C[C@@H](COC(=O)c4ccccc4)O3)c(Cl)c2c1 | – | 80 µM | –
28 | COc1ccc2nc3c(c(C)nn3[C@H]3CN(S(=O)(=O)c4ccc([N+](=O)[O-])cc4)C[C@@H](CO)O3)c(Cl)c2c1 | – | 8 µM | –
29 | COc1ccc2nc3c(c(C)nn3[C@@H]3O[C@H](O/C=C/C(=O)c4ccccc4)[C@@H](O)[C@H]3O)c(Cl)c2c1 | – | 10 µM | –
30 | COc1ccc2nc3c(c(C)nn3[C@H]3CN(Sc4ccc([N+](=O)[O-])cc4)C[C@@H](CO[Si](C)(C)C(C)(C)C)O3)c(Cl)c2c1 | – | 50 µM | –
31 | COc1ccc2nc3c(c(C)nn3[C@@H]3O[C@H](OCc4ccccc4)[C@@H](OCc4ccccc4)[C@H]3OCc3ccccc3)c(Cl)c2c1 | 35% | – | –
32 | COc1ccc2nc3c(c(C)nn3[C@@H]3O[C@H](COC(=O)c4ccoc4)[C@@H](OC(=O)c4ccoc4)[C@H]3OC(=O)c3ccoc3)c(Cl)c2c1 | 49% | – | –
33 | COc1ccc2nc3c(c(C)nn3[C@H]3CN(Sc4ccccc4[N+](=O)[O-])C[C@@H](C/C=C/C(=O)c4ccccc4)O3)c(Cl)c2c1 | – | 4.7 µM | –
34 | COc1ccc2nc3c(c(C)nn3[C@H]3CN(S(=O)(=O)c4ccccc4)C[C@@H](CO[Si](C)(C)C(C)(C)C)O3)c(Cl)c2c1 | – | 14 µM | –
35 | COc1ccc(C(=O)OC[C@H]2O[C@@H](n3nc(C)c4c(Cl)c5cc(OC)ccc5nc43)[C@H](OC(=O)c3ccc(OC)cc3)[C@@H]2OC(=O)c2ccc(OC)cc2)cc1 | 44% | – | –
36 | COc1ccc2nc3c(c(C)nn3[C@H]3CNC[C@@H](CO)O3)c(Cl)c2c1 | 0% | – | –
37 | COc1ccc2nc3c(c(C)nn3[C@H]3CN(Sc4ccc([N+](=O)[O-])cc4)C[C@@H](CO)O3)c(Cl)c2c1 | – | 6.7 µM | –
38 | COc1ccc2nc3c(c(C)nn3[C@@H]3O[C@H](COC(C)=O)[C@@H](OC(C)=O)[C@H]3OC(C)=O)c(Cl)c2c1 | 3% | – | –
39 | COc1ccc2nc3c(c(C)nn3[C@H]3C=C[C@@H](OC(O)CC(=O)c4ccccc4)O3)c(Cl)c2c1 (stereo not given in full) | 48% | – | –
40 | COc1ccc2nc3c(c(C)nn3[C@H]3CN(S(=O)(=O)c4ccc([N+](=O)[O-])cc4)C[C@@H](CO[Si](C)(C)C(C)(C)C)O3)c(Cl)c2c1 | – | 5 µM | –
